In US11192907B2, “Aminopeptidase A inhibitors and pharmaceutical compositions comprising the same” (QUANTUM GENOMICS, priority 2018, dated 2021):
pIC50: −log10 of the molar value.

Legend:
brain APA [1] = conditions: central infusions, cited from earlier work
recombinant mouse APA = biological target: T1, recombinant mouse APA (Mus musculus, UniProt P16406); assay: Measurement of APA activity in vitro (GluβNa hydrolysis, microplate); assay type: biochemical; conditions: 200 μM Glu-βNa, pH 7.4, 37° C., read-out: In vitro inhibition of aminopeptidase A, IC50 classification
T1 sequence (P16406 1-945): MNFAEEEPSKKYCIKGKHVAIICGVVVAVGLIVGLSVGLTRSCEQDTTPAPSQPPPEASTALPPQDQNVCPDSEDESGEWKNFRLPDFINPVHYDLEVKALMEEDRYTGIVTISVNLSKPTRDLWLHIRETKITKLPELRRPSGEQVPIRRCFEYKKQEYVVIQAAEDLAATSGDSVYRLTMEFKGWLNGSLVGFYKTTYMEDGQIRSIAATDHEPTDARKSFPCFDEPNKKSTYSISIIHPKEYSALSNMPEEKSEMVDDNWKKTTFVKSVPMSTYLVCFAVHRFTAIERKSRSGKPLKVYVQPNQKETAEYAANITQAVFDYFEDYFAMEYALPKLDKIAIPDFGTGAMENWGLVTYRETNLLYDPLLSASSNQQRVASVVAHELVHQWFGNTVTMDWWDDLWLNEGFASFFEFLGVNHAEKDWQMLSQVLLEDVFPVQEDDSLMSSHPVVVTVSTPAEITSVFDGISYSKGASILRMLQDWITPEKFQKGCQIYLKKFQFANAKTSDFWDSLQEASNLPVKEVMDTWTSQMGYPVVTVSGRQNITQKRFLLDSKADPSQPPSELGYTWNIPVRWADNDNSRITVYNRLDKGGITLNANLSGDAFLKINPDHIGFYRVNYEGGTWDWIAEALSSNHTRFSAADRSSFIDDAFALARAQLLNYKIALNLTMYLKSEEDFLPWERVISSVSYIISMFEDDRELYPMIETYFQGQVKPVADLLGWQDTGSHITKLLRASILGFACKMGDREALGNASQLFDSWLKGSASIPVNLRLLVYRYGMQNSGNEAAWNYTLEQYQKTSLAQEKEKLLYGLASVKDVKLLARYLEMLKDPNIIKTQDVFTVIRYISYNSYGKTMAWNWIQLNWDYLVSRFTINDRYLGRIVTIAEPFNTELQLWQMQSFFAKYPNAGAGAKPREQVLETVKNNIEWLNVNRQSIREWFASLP
Source text: In vitro, in the presence of calcium ions, APA hydrolyses a synthetic substrate α-L-glutamyl-β-naphthylamide (GluβNa) to glutamate and β-naphthylamine (βNa). A diazotation reaction in acidic medium makes it possible to reveal the β-naphthylamine by formation of a violet-coloured complex: spectrophotometric measurement then makes it possible to know the amount of complex formed and, by reference to a standard curve produced with increasing concentrations of β-naphthylamine, to deduce the enzymatic activity of the sample.
The reaction takes place at pH 7.4 in 50 mM tris-HCl buffer, in the presence of calcium (4 mM CaCl2)); recombinant mouse APA is incubated at 37° C. in the presence of the substrate (200 μM Glu-βNa) and in the presence or absence of various concentrations of the inhibitor to be tested, in a final volume of 100 μL. The reaction is stopped by adding 10 μL of 3N HCl. A standard curve of β-naphthylamine was prepared in parallel by diazotizing increasing concentrations (up to 0.2 mM) of 2-naphthylamine in 0.1 N HCl.
The following are added to each well: 25 μL of sodium nitrite (NaNO2) (mix, wait 5 minutes at room temperature), 50 μL of ammonium sulfamate (mix, wait 5 minutes at room temperature), then add 25 μL of N-(1-naphthyl) ethylenediamine dihydrochloride (mix, wait for stabilization of the violet colour for approximately 30 minutes at 37° C.).
The absorbance is then measured at 540 nm.

brain APA [2] = biological target: T2, brain APA (Mus musculus, UniProt P16406); assay: Measurement of brain APA activity ex vivo after i.v. administration; assay type: in vivo, mice; conditions: for brain APA activity: 10 min
T2 construct: from tissue; host or cells: mouse brain homogenate
T2 sequence (P16406 1-945): T1 sequence (P16406 1-945)
Procedure: Brain APA activity was determined as described above.
In vivo, in mice (male, 18-20 g Charles River), Examples 22 and 52 were administered i.v. (5 mg/kg and 4 mg/kg respectively, in a volume of 200 μL). For each condition, five mice were used. Mice were sacrified 10, 30, 60, 120 and 180 min after the injection. The brains were immediately removed and homogenized by sonication in 10 vol of ice-cold 50 mM Tris-HCl buffer (pH 7.4). APA enzymatic activity was measured on brain homogenates. For this purpose, aliquots of the tissue homogenate (16 μL) were incubated for 30 min at 37° C. with 200 μM of GluβNA, 4 mM CaCl2, and 1 μM bestatin inhibitor, with or without 5 μM EC33, in a total volume of 100 μL of 50 mM Tris-HCl buffer (pH 7.4). Then the assay was pursued as described above.

[3] = acute oral, 15 to 150 mg/kg, conscious hypertensive DOCA-salt rats and SHR rats; cited from earlier work

Structure (SMILES)	pIC50 (recombinant mouse APA)	other results
N[C@H](CS)CCS(=O)(=O)O [EC33, (S)-3 amino-4-mercapto-butylsulfonic acid]	5.00 to 6.52	effect on BP (brain APA [1]; several experimental models of hypertension): lower BP; effect on brain APA activity (brain APA [1]): inhibit brain APA activity
NC(CCC(=O)O)P(=O)(O)CCc1ccccc1-c1ccccc1 (centres unmarked) [Example 39, 4-amino-4-[(2-{[1,1′-biphenyl]-2-yl}ethyl)(hydroxy)phosphoryl]butanoic acid]	6.52 to 7.52	
COc1c(Cl)cccc1CCP(=O)(O)C(N)CCC(=O)O (centres unmarked) [Example 41, 4-amino-4-{[2-(3-chloro-2-methoxyphenyl)ethyl](hydroxy)phosphoryl}butanoic acid]	6.52 to 7.52	
Cn1cc(CCP(=O)(O)C(N)CCC(=O)O)c2ccccc21 (centres unmarked) [Example 42, 3-carboxy-1-{hydroxy[2-(1-methyl-1H-indol-3-yl)ethyl]phosphoryl}propan-1-aminium chloride]	6.52 to 7.52	
NC(CCC(=O)O)P(=O)(O)CCn1ncc2ccccc21 (centres unmarked) [Example 47, 4-amino-4-{hydroxy[2-(1H-indazol-1-yl)ethyl]phosphoryl}butanoic acid]	5.00 to 6.52	
NC(CCCC(=O)O)P(=O)(O)CCc1ccccc1 (centres unmarked) [Example 49, 5-amino-5-[hydroxy(2-phenylethyl)phosphoryl]pentanoic acid]	5.00 to 6.52	
N[C@H](CCC(=O)O)P(=O)(O)CCc1ccccc1 [Example 51, (1S)-3-carboxy-1-[hydroxy(2-phenylethyl)phosphoryl]propan-1-aminium chloride]	5.00 to 6.52	
COc1ccccc1CCP(=O)(O)[C@@H](N)CCC(=O)O.Cl [Example 52, (1R)-3-carboxy-1-{hydroxy[2-(2-methoxyphenyl)ethyl]phosphoryl} propan-1-aminium chloride]	> 7.52	brain APA activity (brain APA [2]; 4 mg/kg i.v., mice): 12.0±4.0 nmol of GluNA hydrolyzed per mg of protein per h; ability to cross the BBB and enter the brain (brain APA [2]; 4 mg/kg i.v., mice, by inhibition of brain APA activity): cross the BBB and to enter the brain; inhibition at 4 mg/kg (brain APA [2]; mouse, iv, 4 mg/kg i.v., mice, 120 min after the injection, read-out: brain APA activity inhibited by): 35%
COc1ccccc1CP(=O)(O)C(N)CCS(=O)(=O)O (centres unmarked) [Example 60, 3-amino-3-{hydroxy[(2-methoxyphenyl)methyl]phosphoryl}propane-1-sulfonic acid]	6.52 to 7.52	
NC(CCS(=O)(=O)O)P(=O)(O)CCc1ccccc1 (centres unmarked) [Example 61, 3-amino-3-[hydroxy(2-phenylethyl)phosphoryl]propane-1-sulfonic acid]	5.00 to 6.52	
COc1ccccc1CCP(=O)(O)C(N)CCS(=O)(=O)O (centres unmarked) [Example 62, 3-amino-3-{hydroxy[2-(2-methoxyphenyl)ethyl]phosphoryl}propane-1-sulfonic acid]	6.52 to 7.52	
NC(CCS(=O)(=O)O)P(=O)(O)CCCc1ccccc1 (centres unmarked) [Example 63, 3-amino-3-[hydroxy(3-phenylpropyl)phosphoryl]propane-1-sulfonic acid]	5.00 to 6.52	
NC(CCS(=O)(=O)O)P(=O)(O)Cc1cccc(-c2ccccc2)c1 (centres unmarked) [Example 64, 3-amino-3-[({[1,1′-biphenyl]-3-yl}methyl)(hydroxy)phosphoryl]propane-1-sulfonic acid]	5.00 to 6.52	
NC(CCS(=O)(=O)O)P(=O)(O)Cc1cc(-c2ccccc2)no1 (centres unmarked) [Example 65, 3-amino-3-{hydroxy[(3-phenyl-1,2-oxazol-5-yl)methyl]phosphoryl}propane-1-sulfonic acid]	5.00 to 6.52	
NC(CCS(=O)(=O)O)P(=O)(O)Cc1cc(-c2ccccc2)on1 (centres unmarked) [Example 66, 3-amino-3-{hydroxy[(5-phenyl-1,2-oxazol-3-yl)methyl]phosphoryl}propane-1-sulfonic acid]	5.00 to 6.52	
NC(CCCS(=O)(=O)O)P(=O)(O)CCc1ccccc1 (centres unmarked) [Example 67, 4-amino-4-[hydroxy(2-phenylethyl)phosphoryl]butane-1-sulfonic acid]	6.52 to 7.52	
NC(CCP(=O)(O)O)P(=O)(O)CCc1ccccc1 (centres unmarked) [Example 68, {3-amino-3-[hydroxy(2-phenylethyl)phosphoryl]propyl}phosphonic acid]	5.00 to 6.52	
N[C@@H](CCS(=O)(=O)O)CSSC[C@@H](N)CCS(=O)(=O)O [RB150]		effect on BP [3]: dose-dependent decrease in BP

The next lines start with results.

pIC50 (recombinant mouse APA)	Structure (SMILES)	other results
> 7.52	NC(CCC(=O)O)P(=O)(O)CCc1ccccc1 (centres unmarked) [Example 22, 4-amino-4-[hydroxy(2-phenylethyl)phosphoryl]butanoic acid]	brain APA activity maximally decreased by (brain APA [2]; 5 mg/kg i.v., conscious mice, from 10 min until 60 min): 47%; brain APA activity (brain APA [2]; 5 mg/kg i.v., mice): 37.5±3.3 nmol of GluNA hydrolyzed per mg of protein per h; brain APA activity time course (brain APA [2]; 5 mg/kg i.v., mice, after 120 min): return to basal values; ability to cross the blood brain barrier and enter the brain (brain APA [2]; 5 mg/kg i.v., mice, by inhibition of brain APA activity): cross the blood brain barrier (BBB) and to enter the brain
> 7.52	NC(CCC(=O)O)P(=O)(O)CCc1cccc(Cl)c1Cl (centres unmarked) [Example 40, 4-amino-4-{[2-(2,3-dichlorophenyl)ethyl](hydroxy)phosphoryl}butanoic acid]	
> 7.52	NC(CCC(=O)O)P(=O)(O)CCc1ccccc1OC1CCCCC1 (centres unmarked) [Example 43, 3-carboxy-1-({2-[2-(cyclohexyloxy)phenyl]ethyl}(hydroxy)phosphoryl) propan-1-aminium chloride]	
> 7.52	COCCOc1ccccc1CCP(=O)(O)C(N)CCC(=O)O (centres unmarked) [Example 44, 3-carboxy-1-[hydroxy({2-[2-(2-methoxyethoxy)phenyl]ethyl})phosphoryl]propan-1-aminium chloride]	
> 7.52	COc1cc(F)ccc1CCP(=O)(O)C(N)CCC(=O)O (centres unmarked) [Example 46, 4-amino-4-{[2-(4-fluoro-2-methoxyphenyl)ethyl](hydroxy)phosphoryl}butanoic acid]	
> 7.52	NC(CCC(=O)O)P(=O)(O)CCc1ccccc1OCc1ccccc1 (centres unmarked) [Example 48, 1-({2-[2-(benzyloxy)phenyl]ethyl}(hydroxy)phosphoryl)-3-carboxy propan-1-aminium chloride]	
> 7.52	N[C@@H](CCC(=O)O)P(=O)(O)CCc1ccccc1 [Example 50, (1R)-3-carboxy-1-[hydroxy(2-phenylethyl)phosphoryl]propan-1-aminium chloride]	
> 7.52	N[C@@H](CCC(=O)O)P(=O)(O)CCc1ccccc1OC1CCCCC1 [Example 53, (4R)-4-amino-4-({2-[2-(cyclohexyloxy)phenyl]ethyl} (hydroxy)phosphoryl) butanoic acid]	
